# According to patent US20250082653A1, “THERAPEUTIC PRODUCT IN THE FORM OF A DENTAL GEL” (CB21 PHARMA, S.R.O., priority 2021, published 2025):
# Key:
# [1] = tested on: matrix metalloproteinase (MMP-2); experiment: MMP-2 production (ELISA) in HGF after P. gingivalis LPS inflammation induction; type: cell-based, human; details: CBD 0.25 and 0.5 μmol/l, 6 and 24 h
# Experimental: (§1) According to the values obtained from the MTT test, two subtoxic concentrations of CBD (0.25 and 0.5 μmol/l) were selected and used to determine its anti-inflammatory effect. Inflammation to HGF was induced by P. gingivalis lipopolysaccharide (LPS) according to How K. Y., Song K. P., Chan K. G., Porphyromonas gingivalis: An Overview of Periodontopathic Pathogen below the Gum Line. Front Microbiol 2016; 7:53. HGFs were seeded in 6-well plates and allowed to grow to confluence. The cells were washed with 1 ml of PBS, and then LPS (1 μg/ml, 2 ml/well) in serum-free culture medium was added, and incubated for 24 hours. A portion of the cells was left without the application of LPS (i.e., without induced inflammation). At the end of the incubation period, CBD in serum-free culture medium at concentrations of 0.25 and 0.5 μmol/l was added (2 ml/well) for 6 and 24 hours, both for cells cultured with LPS and for cells without LPS application. At selected time intervals, the culture medium was collected and stored at −80° C. for further analysis. The levels of proinflammatory interleukins IL-6, IL-8 (Human ELISA Development Kit, Cat. No. 900-K16 and 900-K18, PeproTech, Baria, Czech Republic) and matrix metalloproteinase (MMP-2) (Duo Set ELISA Development System, Cat. No. DY902, R&D, Bio-Techne, UK) were determined by ELISA. […]
# IL-8 = IL-8 production (ELISA) in HGF after P. gingivalis LPS inflammation induction; type: cell-based, human; details: CBD 0.25 and 0.5 μmol/l, 6 and 24 h
# Experimental: as §1
# IL-6 = IL-6 production (ELISA) in HGF after P. gingivalis LPS inflammation induction; type: cell-based, human; details: CBD 0.25 and 0.5 μmol/l, 6 and 24 h
# Experimental: as §1
# gingival fibroblasts = experiment: Permeation of CBD into gingival fibroblasts (UHPLC/MS); type: in vitro ADME, human; details: 0.5 μM CBD
# Experimental: Gingival fibroblasts (obtained from three healthy patients) were seeded in a 6-well plate (well area 9.6 cm^2) and allowed to grow until the next day (confluence). CBD was applied to the cells at a concentration of 0.5 μM for 6 and 24 hours. At the end of the incubation period, 250 μl of medium was mixed with 250 μl of methanol with 1% (w/w) HCl and the cells were washed 2× with PBS (1 ml), scraped from 4 wells into PBS (phosphate buffer, 1 ml), centrifuged for 5 minutes at 3000 rpm. After centrifugation, PBS was removed and 0.5 ml of methanol with 1% (w/w) HCl was added and the cells were sonicated (cycle 0.5, amplitude 50, 10 times). The samples were then centrifuged for 2 minutes at 8000 rpm and the supernatant was pipetted into a clean tube and subjected to UHPLC/MS analysis.
# UHPLC/MS analyses were performed on an ACQUITY I Class liquid chromatograph (Waters, Milford, MA, USA). It is a modular system consisting of a chromatographic pump (Binary Solvent Manager), autosampler (Sample Manager) and column thermostat (Column Manager). Kinetex Polar C18 (100×2.1 mm i.d., 2.6 μm; Phenomenex, CA, USA) was used as the analytical column. The system was operated with a gradient elution of the mobile phase (MFA 0.1% formic acid in water, MFB 0.1% formic acid in acetonitrile) at a flow rate of 0.6 ml/min and a temperature of 25° C. The gradient elution had the following parameters: 0 to 11 min 50 to 70% MFB, 11 to 12.5 min 70 to 100% MFB, 12.5 to 13 min 100 to 50% MFB, 13 to 16 min 50% MFB. The injection volume was 2 μl.
# A high resolution Synapt G2-S mass spectrometer (Waters Corp., Manchester, UK) connected to the UPLC system via an electrospray ionization (ESI) interface was used for the metabolic study. The ion source was operated in positive ionization mode with a capillary voltage of 3.0 kV and a sample cone of 30 V. The source temperature and desolvation gas temperature were set at 120° C. and 320° C. The desolvation gas flow rate was 900 l/h. […]
# [2] = tested on: human gingival fibroblasts (HGF); experiment: MTT cytotoxicity test in human gingival fibroblasts; type: cell-based; details: CBD 0.25 and 0.5 μmol/l; 24 h incubation
# Experimental: In an in vitro study of the effect of cannabidiol (CBD), human gingival fibroblasts (HGF) isolated from gingiva taken from volunteers at the Department of Oral, Maxillofacial and Facial Surgery of the University Hospital and Medical Faculty of Palacký University Olomouc approved by the Ethics Committee of the University Hospital and Medical Faculty of Palacký University Olomouc (2019) were used. In the first phase of the experiment, a safe CBD concentration was determined based on the results of MTT, which is cytotoxicity test based on the reduction of 3-(4,5-dimethylthiazol-2-yl)-2,5-diphenyltetrazolium bromide (MTT) to the corresponding formazane. The test was performed according to M. D. Maines, L. G. Costa, D. J. Reed, et al. Current protocols in toxicology. New York: John Wiley & Sons. (1998).
# Cells seeded in a 96-well plate at a count of 3×10^4 cells/ml and 100 μl/well, which were […], 100 μl MTT was added (0.5 mg/ml in serum-free culture medium), the mixture was incubated for 2 h. After the incubation period and aspiration of the MTT mixture, 100 μl DMSO (dimethyl sulfoxide) with NH3 (1%, v/v) was added. Absorbance was measured at 540 nm.
# [3] = tested on: Porphyromonas gingivalis CCM 3985; experiment: MIC by microdilution method (CLSI M11), anaerobic; type: cell-based; details: P. gingivalis, 60 h anaerobic incubation, three independent experiments
# Experimental: (§2) Strains Streptococcus mutans CCM 7409 and Porphyromonas gingivalis CCM 3985 were selected for testing. Both were obtained from Czech Collection of Microorganisms (Brno). BHI+kh medium (Brain-heart infusion (Oxoid, UK) enriched with vitamin K (0.001 mg/ml) and hemin ([…])) was used to cultivate S. mutans, and for P. gingivalis medium WCHA—Wilkins-Chalgren agar (HiMedia, India), with 7% sheep erythrocytes and vitamin K (0.001 mg/ml). (Blaskovich M A T, Kavanagh A M, Elliott A G, Zhang B, Ramu S, Amado M et al. The antimicrobial potential of cannabidiol. Commun Biol 2021; 4(1):1-18).
# (§3) The susceptibility of selected microbes to tested substance was verified by the microdilution method according to Clinical and Laboratory Standards Institute (M Methods for Antimicrobial Susceptibility Testing of Anaerobic Bacteria. 9th ed. CLSI standard M11. Wayne, PA: Clinical and Laboratory Standards Institute; 2018).
# (§4) Basic working solutions were prepared from the tested substance by dilution in DMSO. […] The required concentrations of the tested substance were then prepared by serial dilution, dilution factor 1:2. 135 μl of each dilution was pipetted into the wells of a 96-well round-bottomed hardened polystyrene microtiter plate (Gamma České Budějovice, a.s.).
# (§5) From fresh cultures of the test strains on Wilkins-Chalgren agar (WCHA; HiMedia, India), with 7% sheep erythrocytes and vitamin K, suspensions were prepared in BHI+kh at an optical density corresponding to 0.5 degrees McFarland turbidity scale (after subtraction of optical density of the medium). The suspensions were then diluted in the ratio 1:15 (final inoculum concentration 5×10^6 CFU/ml). Individual wells with 135 μl of the CBD solutions and control wells were inoculated with 15 μl of the prepared inoculum.
# (§6) The inoculated microtiter plates were incubated in an Anaerobic Work Station (Ruskinn Technology, UK) with an anaerobic atmosphere (80% N2, 10% CO2 and 10% H2) at 37° C. The incubation was performed for 60 hours for P. gingivalis and 24 hours for S. mutans.
# (§7) The sterility of the medium was checked by transferring 150 μl BHI+kh to three wells of a microtiter plate. […]
# (§8) After evaluating the MIC, the contents of the wells with the highest concentration of CBD and with visible microbial growth were inoculated onto WCHA. […] After 48 hours (S. mutans) or 14 days (P. gingivalis) of incubation in an anaerobic atmosphere, the purity of the grown microbial culture was evaluated. […]
# (§9) The growth of the microbe, which manifested itself by turbidity of the medium or as a sediment at the bottom of the well of the microtiter plate, was monitored in the individual wells of the microtiter plate. […] The minimum inhibitory concentration (MIC) was determined as the lowest concentration of the substance at which no microbial growth was observed. […]
# [4] = tested on: Streptococcus mutans CCM 7409; experiment: MIC by microdilution method (CLSI M11), anaerobic; type: cell-based; details: S. mutans, 24 h anaerobic incubation, three independent experiments
# Experimental: as §2, §3, §4, §5, §6, §7, §8, §9
smiles,measurement,setting,value
"C=C(C)[C@@H]1CCC(C)=C[C@H]1c1c(O)cc(CCCCC)cc1O [CBD, cannabidiol]",MMP-2 levels,[1],no significant changes
same,levels of IL-8,IL-8,decrease
same,levels of IL-6,IL-6,decrease
same,absorption of CBD by gingival fibroblasts,"gingival fibroblasts; 6 and 24 h, cell lysates",absorbed relatively quickly
same,CBD in the culture medium,"gingival fibroblasts; 6 and 24 h incubation, UHPLC/MS",not detected
same,metabolites of CBD,gingival fibroblasts; after 24 h of cultivation,no metabolites of CBD were identified
same,Cytotoxicity by MTT test,[2],subtoxic
same,MIC range,[3],1 to 2 µg/mL
same,MIC,"[3]; Porphyromonas gingivalis, CCM3985, read-out: MIC median",1.5 µg/mL
same,MIC range,[4],16 µg/mL
same,MIC,"[4]; Streptococcus mutans, CCM7409, read-out: MIC median",16 µg/mL
